Data reported in the supplement of paper PMC13380429.
± gives the standard deviation of the averaged measurements.

How the values were obtained:
Conditions in all cases: 72 h
[1] = tested on: Caco-2; assay: cell viability relative to DMSO; higher = less toxic
[2] = tested on: Calu-3; assay: as above
[3] = tested on: HepG2; assay: as above
[4] = tested on: U2OS; assay: as above
[5] = tested on: Vero E6; assay: as above
[6] = tested on: Caco-2; assay: relative viability EC50 (midpoint between 100% and the lowest measured viability); higher = less toxic
[7] = tested on: Calu-3; assay: as above
[8] = tested on: HepG2; assay: as above
[9] = tested on: U2OS; assay: as above
[10] = tested on: Vero E6; assay: as above
[11] = tested on: Caco-2; assay: drug sensitivity score (DSS) for viability; higher = more toxic; extreme values may be limits of the assay
[12] = tested on: Calu-3; assay: as above
[13] = tested on: HepG2; assay: as above
[14] = tested on: U2OS; assay: as above
[15] = tested on: Vero E6; assay: as above

SMILES	cell viability ([1]; 1 nM)	cell viability ([1]; 10 nM)	cell viability ([1]; 100 nM)	cell viability ([1]; 1000 nM)	cell viability ([1]; 10000 nM)	cell viability ([2]; 1 nM)	cell viability ([2]; 10 nM)	cell viability ([2]; 100 nM)	cell viability ([2]; 1000 nM)	cell viability ([2]; 10000 nM)	cell viability ([3]; 1 nM)	cell viability ([3]; 10 nM)	cell viability ([3]; 100 nM)	cell viability ([3]; 1000 nM)	cell viability ([3]; 10000 nM)	cell viability ([4]; 1 nM)	cell viability ([4]; 10 nM)	cell viability ([4]; 100 nM)	cell viability ([4]; 1000 nM)	cell viability ([4]; 10000 nM)	cell viability ([5]; 1 nM)	cell viability ([5]; 10 nM)	cell viability ([5]; 100 nM)	cell viability ([5]; 1000 nM)	cell viability ([5]; 10000 nM)	relative viability EC50 [6]	relative viability EC50 [7]	relative viability EC50 [8]	relative viability EC50 [9]	relative viability EC50 [10]	drug sensitivity score [11]	drug sensitivity score [12]	drug sensitivity score [13]	drug sensitivity score [14]	drug sensitivity score [15]
CC(C)(Oc1ccc(C2CC2(Cl)Cl)cc1)C(=O)O (stereo not given) [ciprofibrate]	101%	93.5%	103%	86.7%	102%	104%	98.1%	96.5%	93.7%	95.9%	96.3%	106%	99.2%	96.1%	100%	93.2%	98.3%	99.6%	94.7%	91.7%	94.1%	94.4%	93.4%	97.2%	108%	> 10 µM	> 10 µM	> 10 µM	> 10 µM	> 10 µM	0	0	0	0	0
CC(C)(C)CC(C)(C)c1ccc(O)c(Cc2ccc(Cl)cc2Cl)c1 [clofoctol]	94.6%	102%	99.7%	99.8%	93.8%	91.2%	96.5%	92.4%	90.9%	98.5%	109%	98%	113%	96.2%	98.5%	99.4%	103%	102%	103%	96.9%	107%	101%	102%	99.8%	102%	> 10 µM	> 10 µM	> 10 µM	> 10 µM	> 10 µM	0	0	0	0	0
Cc1nc(C)c(Cl)c(O)c1Cl [clopidol]	96.9%	100%	94.1%	99.2%	92.7%	105%	94.2%	93.6%	101%	102%	100%	99.9%	104%	99.2%	116%	98.3%	96.2%	92.4%	97.7%	92.5%	96.9%	95.9%	101%	96.6%	95.2%	> 10 µM	> 10 µM	> 10 µM	> 10 µM	> 10 µM	0	0	0	0	0
Cc1nc2c([nH]1)-c1ccccc1N(C(=O)c1ccc(NC(=O)c3ccccc3-c3ccccc3)cc1)CC2 [conivaptan]	97.5%	94.3%	91.2%	102%	91.7%	102%	106%	105%	94.1%	96.6%	97.9%	97.1%	101%	93.6%	101%	101%	103%	96.3%	104%	97.6%	97.9%	100%	97.3%	89.4%	100%	> 10 µM	> 10 µM	> 10 µM	> 10 µM	> 10 µM	0	0	0	0	0
CN1CCC(=C2c3ccccc3C=Cc3ccccc32)CC1 [cyproheptadine]	106%	96.4%	99.7%	90.3%	90.3%	101%	97.2%	91.3%	106%	101%	88.7%	90.1%	116%	103%	86.6%	97.6%	97.4%	92.1%	100%	96.9%	98.8%	99.5%	97.3%	86.1%	79.3%	> 10 µM	> 10 µM	> 10 µM	> 10 µM	> 10 µM	0	0	0	0	1.8
CC(C)(C)c1nc(-c2cccc(NS(=O)(=O)c3c(F)cccc3F)c2F)c(-c2ccnc(N)n2)s1 [dabrafenib]	103%	97.1%	98.2%	77.8%	101%	88%	93.8%	106%	99.3%	124%	96.4%	90.9%	78.3%	65.9%	30.4%	102%	93.2%	107%	95.3%	102%	96.5%	104%	103%	79.8%	102%	> 10 µM	> 10 µM	0.49 µM	> 10 µM	> 10 µM	0	0	9.8	0	0
CN[C@H]1C(=O)N[C@@H]2Cc3ccc(cc3)Oc3cc4cc(c3O[C@@H]3O[C@H](C(=O)O)[C@@H](O)[C@H](O)[C@H]3NC(=O)CCCCCCCCC(C)C)Oc3ccc(cc3Cl)[C@@H](O)[C@@H]3NC(=O)[C@H](NC(=O)[C@@H]4NC(=O)[C@@H](NC2=O)c2cc(cc(O)c2Cl)Oc2cc1ccc2O)c1ccc(O)c(c1)-c1c(O[C@H]2O[C@H](CO)[C@@H](O)[C@H](O)[C@@H]2O)cc(O)cc1[C@@H](C(=O)NCCCN(C)C)NC3=O [dalbavancin]	89.3%	106%	92.6%	111%	90.1%	95.2%	102%	95.2%	103%	95%	88.7%	94.3%	118%	91.4%	116%	99.1%	100%	96.9%	98%	95.8%	111%	114%	109%	87.3%	102%	> 10 µM	> 10 µM	> 10 µM	> 10 µM	> 10 µM	0	0	0	0	0
CCCC(=O)O[C@]1(C(=O)COC(C)=O)CC[C@H]2[C@@H]3C[C@H](F)C4=CC(=O)C=C[C@]4(C)[C@@]3(F)[C@@H](O)C[C@@]21C [difluprednate]	96.6%	93.2%	98.3%	101%	91.8%	106%	90.7%	87.7%	90.5%	102%	97.5%	93.7%	107%	105%	88.3%	99.5%	93.3%	93.4%	94.1%	92.1%	96.9%	97%	95.3%	98.9%	94.2%	> 10 µM	> 10 µM	> 10 µM	> 10 µM	> 10 µM	0	0	0	0	0
Cc1ccc2c(c1)[C@]13CCCC[C@@H]1[C@H](C2)N(C)CC3 [dimemorfan]	93.5%	96.5%	94.6%	103%	91.8%	89.1%	95.5%	89.1%	89.2%	98.7%	105%	103%	99%	95.3%	101%	96.8%	102%	95.7%	101%	93.7%	101%	103%	104%	98.7%	106%	> 10 µM	> 10 µM	> 10 µM	> 10 µM	> 10 µM	0	0	0	0	0
Fc1ccc2nc(CCC#Cc3ccccn3)cn2c1 [dipraglurant]	102%	94.2%	106%	99.5%	99.3%	92.1%	100%	95.2%	99.4%	88%	99.9%	99.8%	103%	104%	106%	100%	97.3%	95.3%	93.9%	99.9%	94.8%	100%	91.6%	93.3%	110%	> 10 µM	> 10 µM	> 10 µM	> 10 µM	> 10 µM	0	0.1	0	0	0
OCC(O)CN1CCN(c2ccccc2)CC1 (stereo not given) [dropropizine]	89.7 ± 5%	85.2 ± 12%	97.8 ± 2.9%	91.9 ± 0.57%	96.3 ± 9.9%	106 ± 1.6%	97.85 ± 0.64%	104 ± 4.5%	99.6 ± 1.3%	97.85 ± 0.21%	94.8 ± 4.6%	101 ± 4.9%	102 ± 1.6%	99.5 ± 3.2%	88.9 ± 5.2%	99.9 ± 5%	97.3 ± 4.9%	100.5 ± 0.49%	97.7 ± 0.14%	102.8 ± 0.35%	96.6 ± 7.5%	95.8 ± 1.5%	94.2 ± 8.5%	96.7 ± 6.7%	103 ± 8.4%	> 10 µM	> 10 µM	> 10 µM	> 10 µM	> 10 µM	0	0	0.1 ± 0.14	0	0
